Patent US9968583B2, “Method of manufacture of liposome composition” (EISAI R & D MANAGEMENT CO., LTD., priority 2009, dated 2018)
Counter-ions that a name gives are not always drawn. Like-named read-outs stand apart in the source and are kept apart here.

Tests used:
[1] = Measurement of the entrapment ratio (ultracentrifugation, HPLC of active compound in the filtrate); assay type: physicochemical; conditions: E7107, internal phase 250 mM HP-β-cyclodextrin/100 mM citric acid (pH=5.5)
Protocol: The entrapment ratio was determined as described below.
The entrapment ratio was calculated using the formula below.

[2] = test system: WiDr, human colon cancer cell line; experiment: Therapeutic effect of E7107 on tumor growth in WiDr cancer-bearing nude mice (Embodiment 10); assay type: in vivo; conditions: 2.5 mg/kg single dose into caudal vein; 5 days after administration
Protocol: (§1) WiDr (obtained from Dainippon Sumitomo Pharma Co., Ltd.), which is a human colon cancer cell line, was cultured and grown in a 10% bovine fetal serum-containing RPMI1640 culture. The cells were separated from the flask using 0.05% Trypsin-EDTA solution and collected. After washing with PBS, the cells were suspended in Hank's Balanced Salt Solution (manufactured by GIBCO) so as to be 5×10^7 cells/mL and kept on ice. 100 μL of cell suspension liquid was subcutaneously injected in the right ventral portion of 6- to 8-week old nude mice (CLEA Japan, Inc.). Each mouse was observed daily, and notes were made appropriately in cases where abnormal conditions were found. Calipers were used to measure the tumor size over time, and the tumor size was calculated based on the calculation formula: major axis×(minor axis squared)÷2. Moreover, the mouse body weight was also measured over time. At the point when the tumor size was 100 to 200 mm^3, the mice were separated into groups such that the average values of the tumor sizes and the mouse body weights were uniform among the test groups (five mice per test group). […]
(§2) The tumor-growth suppression effect and the body weight loss 5 days after administration were statistically analyzed by a parametric method. […]

[3] = Body weight of WiDr cancer-bearing nude mice (Embodiment 10); assay type: in vivo; conditions: average body weight; 2.5 mg/kg single dose; 5 days after administration
Protocol: as §1, §2

[4] = Eribulin mesylate blood plasma and tumor tissue PK in LOX cancer-bearing mice (Embodiment 11); assay type: in vivo; conditions: female, NU/NU nude, mouse, iv
Protocol: A blood sample was taken and tumor tissue extraction was carried out with a cardiac puncture at fixed periods after administration (15 minutes, 30 minutes, 1, 2, 4, 8, 12, 24, 36, and 48 hours) (n=3). The blood was sampled in a test tube containing heparin, and within 30 minutes of the sampling, the blood was separated by centrifuging at 1,500×g for 10 minutes at 4° C. to obtain the blood plasma. All of the tumor tissue was extracted, washed with PBS, and wiped with water-absorbent paper, and then the tissue weight was immediately weighed. The tissue was placed in a test tube and cooled in ice water, and then stored at −80° C. until analysis was carried out.
The PK parameters were calculated using non-compartment model analysis software (WinNonlin version 5.0.1).

[5] = test system: WiDr, human colon cancer cell line; experiment: Antitumor activity of eribulin mesylate in WiDr cancer-bearing nude mice (Embodiment 12, FIG. 5); assay type: in vivo; conditions: 2 mg/kg; caudal vein, 2 times in 7-day intervals; five mice per group
Protocol: WiDr, which is a human colon cancer cell line, was cultured and grown in a 10% bovine fetal serum-containing RPMI1640 culture. The cells were separated from the flask using 0.05% Trypsin-EDTA solution and collected. After washing with PBS, the cells were suspended in Hank's Balanced Salt Solution (manufactured by Gibco BRL Co. Ltd.) so as to be 5×10^7 cells/mL and kept on ice. 0.1 mL of cell suspension liquid were subcutaneously injected in the right ventral portion of 7-week old nude mice (Charles River Laboratories Japan, Inc.). Each mouse was observed daily, and notes were made appropriately in cases where abnormal conditions were found. Calipers were used to measure the tumor size over time, and the tumor size was calculated based on the calculation formula: major axis×(minor axis squared)÷2. At the point when the tumor size was 100 to 200 mm^3, the mice were separated into groups such that the average values of the tumor sizes and the mouse body weights were uniform among the test groups (five mice per test group), and the drug was administered into the caudal vein (0.2 mL/20 g; 2 times in 7-day intervals).

[6] = test system: FaDu, human pharyngeal squamous cell carcinoma line; experiment: Antitumor activity of eribulin mesylate in FaDu cancer-bearing nude mice (Embodiment 13, FIG. 6); assay type: in vivo; conditions: 4.0 mg/kg free bodies, caudal vein, 3 times in 7-day intervals
Protocol: FaDu (obtained from the American Type Culture Collection), which is a human pharyngeal squamous cell carcinoma line, was cultured and grown in a 10% bovine fetal serum-containing MEM culture. The cells were separated from the flask using 0.05% Trypsin-EDTA solution and collected. After washing with PBS, the cells were suspended in PBS so as to be 5×10^7 cells/mL and then kept on ice. 0.1 mL of cell suspension liquid were subcutaneously injected in the right ventral portion of 6-week old nude mice (Charles River Laboratories Japan, Inc.). Each mouse was observed daily, and notes made appropriately in cases where abnormal conditions were found. Calipers were used to measure the tumor size over time, and the tumor size was calculated based on the calculation formula: major axis×(minor axis squared)÷2. At the point when the tumor size was 100 to 200 mm^3, the mice were separated into groups such that the average values of the tumor sizes and the body weights of mice were uniform among the test groups (five mice per test group), and the drug was administered into the caudal vein (0.2 mL/20 g; 3 times in 7-day intervals).

[7] = test system: FaDu, human pharyngeal squamous cell carcinoma line; experiment: Antitumor activity of eribulin mesylate in FaDu cancer-bearing nude mice (Embodiment 14, FIG. 7); assay type: in vivo; conditions: 4.0 mg/kg free bodies, caudal vein, 3 times in 7-day intervals
Protocol: FaDu (obtained from the American Type Culture Collection), which is a human pharyngeal squamous cell carcinoma line, was cultured and grown in a 10% bovine fetal serum-containing MEM culture. The cells were separated from the flask using 0.05% Trypsin-EDTA solution and collected. After washing with PBS, the cells were suspended in PBS so as to be 5×10^7 cells/mL and kept on ice. 0.1 mL of cell suspension liquid was subcutaneously injected in the right ventral portion of 6-week old nude mice (Charles River Laboratories Japan, Inc.). Each mouse was observed daily, and notes were made appropriately in cases where abnormal conditions were found. Calipers were used to measure the tumor size over time, and the tumor size was calculated based on the calculation formula: major axis×(minor axis squared)÷2. At the point when the tumor size was 100 to 200 mm^3, the mice were separated into groups such that the average values of the tumor sizes and the mouse body weights were uniform among the test groups (five mice per test group), and the drug was administered into the caudal vein (0.2 mL/20 g; 3 times in 7-day intervals).

[8] = test system: ACHN, human renal cancer cell line; experiment: Antitumor activity of eribulin mesylate in ACHN cancer-bearing nude mice (Embodiment 15, FIG. 8); assay type: in vivo; conditions: free body 2 mg/kg, 3 mg/kg and 4 mg/kg, 3 times in 7-day intervals, 45 days after the start of administration
Protocol: ACHN (obtained from the American Type Culture Collection), which is a human renal cancer cell line, was cultured and grown in a 10% bovine fetal serum-containing MEM culture. The cells were separated from the flask using 0.05% Trypsin-EDTA solution and collected. After washing with PBS, the cells were suspended in PBS so as to be 5×10^7 cells/mL and then kept on ice. 0.1 mL of cell suspension liquid was subcutaneously injected in the right ventral portion of 6-week old nude mice (Charles River Laboratories Japan, Inc.). Each mouse was observed daily, and notes were made appropriately in cases where abnormal conditions were found. Calipers were used to measure the tumor size over time, and the tumor size was calculated based on the calculation formula: major axis×(minor axis squared)÷2. At the point when the tumor size was 150 to 200 mm^3, the mice were separated into groups such that the average values of the tumor sizes and the mouse body weights were uniform among the test groups (five mice per test group), and the drug was administered into the caudal vein (0.2 mL/20 g; 3 times in 7-day intervals).

[9] = Maximum tolerance dose of eribulin mesylate free bodies; assay type: in vivo; conditions: free body of eribulin mesylate, caudal vein, nude mice
[10] = complex with HP-β-cyclodextrin, Non-patent Literature 6, cited from earlier work
[11] = blood plasma, 1.0 mg/kg into caudal vein, LOX cancer-bearing mice
[12] = tumor tissue, 1.0 mg/kg into caudal vein, LOX cancer-bearing mice

Q: Which “Entrapment ratio (%)” value ([1]; 5° C., 5 minutes) does the source give for `CCC(O)C(C)C1OC1CC(C)(O)/C=C/C=C(\C)C1OC(=O)CC(O)CCC(C)(O)C(OC(=O)N2CCN(C3CCCCCC3)CC2)/C=C/C1C` (stereo not drawn) [E7107, (8E,12E,14E)-7-{(4-cycloheptylpiperazin-1-yl)carbonyl}oxy-3,6,16,21-tetrahydroxy-6,10,12,16,20-pentamethyl-18,19-epoxytricosa-8,12,14-trien-11-olide] here?
A: 0%

Q: And the “Entrapment ratio (%)” value ([1]; 5° C., 1 hour)?
A: 0%

Q: And the “Entrapment ratio (%)” value ([1]; 5° C., 6 hours)?
A: 0%

Q: And the “Entrapment ratio (%)” value ([1]; 20° C., 1 minute)?
A: 0%

Q: And the “Entrapment ratio (%)” value ([1]; 20° C., 5 minutes)?
A: 0%

Q: And the “Entrapment ratio (%)” value ([1]; 20° C., 1 hour)?
A: 13.1%

Q: And the “Entrapment ratio (%)” value ([1]; 20° C., 6 hours)?
A: 49.6%

Q: What about the “Entrapment ratio (%)” value ([1]; 40° C., 1 minute) of the same compound?
A: 4.1%

Q: And the “Entrapment ratio (%)” value ([1]; 40° C., 5 minutes)?
A: 87.5%

Q: And the “Entrapment ratio (%)” value ([1]; 50° C., 1 minute)?
A: 56.8%

Q: What about the “Entrapment ratio (%)” value ([1]; 60° C., 1 minute) of the same compound?
A: 99.2%

Q: And the “Tumor (mm^3)” value [2]?
A: 204.34 mm^3

Q: And the “Body weight” value [3]?
A: 20.32 g

Q: What does the source list for `C=C1C[C@@H]2CC[C@@]34C[C@H]5O[C@H]6[C@@H](O3)[C@H]3O[C@H](CC[C@@H]3O[C@H]6[C@H]5O4)CC(=O)C[C@@H]3[C@@H](OC)[C@@H](C[C@H](O)CN)O[C@H]3C[C@H]3O[C@@H](CC[C@@H]1O2)C[C@@H](C)C3=C` [eribulin mesylate]?
A: MRT [4, 11]: 3.3 h; clearance [4, 11]: 40.3 mL/min/kg; half-life [4, 11]: 3.7 h; Vd ([4]; blood plasma, 1.0 mg/kg into caudal vein, LOX cancer-bearing mice, read-out: Vss): 8.03 L/kg; AUC(0-inf) [4, 12]: 6290 ng·h/mL; AUC(0-t) [4, 12]: 4650 ng·h/mL; Cmax [4, 12]: 323 ng/g; MRT [4, 12]: 27.7 h; Tmax [4, 12]: 0.25 h; half-life [4, 12]: 17.8 h; AUC(0-inf) ([4]; plasma, 1 mg/kg): 365 ng·h/mL; AUC(0-t) ([4]; plasma, 1 mg/kg): 363 ng·h/mL; Complete disappearance of the tumor / mice completely healed [5]: 2 out of 5; Tumor-reducing effect [6]: tumor-reducing effect was not obtained; Tumor-reducing effect [7]: tumor-reducing effect was not obtained; Tumor volume versus the untreated group [8]: no significant difference; Maximum tolerance dose [9]: 4 mg/kg; Maximum tolerance dose ([9]; listed as free bodies): 4.0 mg/kg

Q: With `CC(C(=O)O)c1cccc(C(=O)c2ccccc2)c1` (stereo not drawn) [ketoprofen] as the compound, how does the Entrapment ratio ([10]; MLVs (multilamellar vesicles)) read?
A: approximately 75%

Q: And the Entrapment ratio ([10]; SUVs (small unilamellar vesicles))?
A: approximately 55%
